Data as given in paper PMC12892976, “Alkylation-based optimization of antifungal FPPS inhibitors yields a potent, broad-spectrum lipophilic zoledronate derivative” (mBio, 2025).
Converted amounts (≈) assume the structure as drawn.

What was measured:
Assay in all cases: squalene rescue assay
Assay type in all cases: cell-based
C. albicans SC5314 = conditions: Candida albicans, SC5314, read-out: EC50 (squalene concentration rescuing 50% of growth)
Procedure: (§1) Squalene rescue assays were performed as described previously ([7]). […] After incubation at 35°C for 24 h (C. albicans), 48 h (A. fumigatus), or 72 h (C. neoformans), OD600 was measured in a BioTek ELx800 plate reader.

C. neoformans H99 = conditions: Cryptococcus neoformans, H99, read-out: EC50 (squalene concentration rescuing 50% of growth)
Procedure: as §1

A. fumigatus ATCC 204305 = conditions: Aspergillus fumigatus, ATCC204305, read-out: EC50 (squalene concentration rescuing 50% of growth)
Procedure: as §1

EC50 (C. albicans SC5314): 12.4 µg/mL (≈ 30.3 µM) | EC50 (C. neoformans H99): 2.98 µg/mL (≈ 7.25 µM) | EC50 (A. fumigatus ATCC 204305): 23.3 µg/mL (≈ 56.7 µM)
SMILES: CC(C)=CCC/C(C)=C/CC/C(C)=C/CC/C=C(\C)CC/C=C(\C)CCC=C(C)C [squalene]
